The numbers were not newly measured in PMC9861162 (Pharmaceuticals, 2022), which cites them from elsewhere.

This data set deals with several pathogenic fungi, such as Tricophyton verrucosum, Tricophyton rubrum, Trycophyton mantagrophutes, Microsporum gypseum, Microsporum canis, and …. The conditions noted are these: ref [1]-[7]; cited from earlier work.

Molecules are shown by their SMILES.

`FC(F)(F)c1ccc(COC(Cn2ccnc2)c2ccc(Cl)cc2Cl)cc1` (stereo not shown) [dapaconazole, Dapaconazole]: the antifungal activity result is recorded as “antifungal activity”.
